Source: patent publication US5801162A, “Dermatan sulfate compositions and antithrombotic compositions containing same” (Seikagaku Kogyo Kabushiki Kaisha (Seikagaku Corporation), priority 1993, dated 1998)

What was measured:
[1] = tested on: activation of plasminogen with single-chain t-PA (sc-tPA); conditions: s-2251
Method: (§1) Fifty microliters each of various concentration of DS (BIDS, CCDS) or chondroitin sulfate (control group), 25 μL of 1.6 μM plasminogen and 25 μL of 20 nM of single or two-chain t-PA, and 100 μL of 0.6 mM a synthetic substrate S-2251 (H-D-Val-L-Leu-L-Lys-p-nitroanilide·2HCl) were mixed and the absorbancy at 405 nm was determined every 2 minutes with an automatic microtiter plate reader. The reaction was carried out at 37° C. in a buffer composed of 60 mM TriS-HCl with Tween^RTM 80.
(§2) The initial rate of activation of plasminogen was calculated as follows; the slope of plots of, .LAMBDA.405, an absorbancy at 405 nm at time t to the square of time (Δ.LAMBDA.405 /Δt^2) was divided by 40,000 (Chibber, B. A. K., et al., Biochemistry, 1985, pp. 3429-3434). The stimulation rate was calculated from ratios to DS or chondroitin sulfate free conditions which was made the initial rate 1 (one).

[2] = tested on: activation of plasminogen with two-chain t-PA (tc-tPA); conditions: s-2251
Method: as §1, §2

## chondroitin sulfate
[1]
  stimulation rate of activation of plasminogen (ratio to DS or chondroitin sulfate free conditions): ≤ 2.5 fold
[2]
  stimulation rate of activation of plasminogen (ratio to DS or chondroitin sulfate free conditions): ≤ 1.5 fold
